By Log P is commonly meant the decadic logarithm of the partition coefficient of the neutral form, usually between octanol and water.

The conditions of series [1]: reported value for comparison; cited from earlier work.
The nature of series [2]: apparent octanol-water partition coefficient (APC) of MNTX salts by HPLC. It counts as physicochemical. Particulars: 1-octanol/water, aqueous phase pH between 4.5 and 6.8; for Log P: room temperature; for APC: shaken overnight at room temperature. From the text: The term “apparent partition coefficient,” as used herein, refers to the ratio of concentrations of a compound in any form in the two phases of a mixture of two immiscible solvents at equilibrium. In certain embodiments, the two immiscible solvents are octanol and water. The apparent partition coefficient may be determined under various conditions, for example, temperature, pH, concentration, etc. Apparent partition coefficients have been found useful in estimating the distribution of compounds in the body. Higher apparent partition coefficients denote a more hydrophobic (more lipophilic) compound, while lower apparent partition coefficients denote a hydrophilic compound. The apparent partition coefficient of a compound may be determined by procedures known in the art, for example, in the U.S. Pharmacopeia. The apparent partition coefficient may be determined by the procedure used to determine the apparent partition coefficients of methylnaltrexone dodecyl sulfate and methylnaltrexone heptyl sulfate in the Examples.
As a measure of lipophilicity of the resulting ion pair, a solution of the composition yields an apparent octanol/water partition coefficient for methylnaltrexone of at least 0.25 at a pH between 1 and 4. The apparent octanol/water partition coefficient as used herein is determined at room temperature at a concentration of approximately 0.5 mg/mL. Exemplary methods for the determination of apparent octanol/water partition coefficient of methylnaltrexone salts are described in the Examples below.
Ion pairs of methylnaltrexone with amphiphilic pharmaceutically acceptable excipients were prepared and the apparent octanol-water partition coefficient (APC) was measured and compared to that of methylnaltrexone bromide. A pre-determined amount of each of MNTX-heptyl sulfate and MNTX-dodecyl sulfate was dissolved in 2 mL of 1-octanol that was saturated with water. Two mL of water that was saturated with 1-octanol was added to each MNTX salt solution. The mixtures were shaken overnight at room temperature, and 1 mL of the 1-octanol phase was then diluted to 10 mL with the mobile phase used for chromatographic (HPLC) analysis of the samples. And 1 mL of the aqueous phase was diluted to 5 mL with the mobile phase. The samples were then analyzed by HPLC to determine the apparent partition coefficient and log P for each MNTX salt. The pH of the aqueous phases for each of the salts was between 4.5 and 6.8.

The test system of series [3] is constipation in methadone maintenance patients. The note with it: intravenous 0.01-0.37 mg/kg; cited from earlier work.
The conditions of series [4]: oral, in general; cited from earlier work.
The conditions of series [5]: intravenous 0.01-0.37 mg/kg, methadone maintenance patients; cited from earlier work.

For `C[N@+]1(CC2CC2)CC[C@]23c4c5ccc(O)c4O[C@H]2C(=O)CC[C@@]3(O)[C@H]1C5.[Br-]` [MNTX, (R)—N-(cyclopropylmethyl) noroxymorphone methobromide], in series [1], the “reported Log P” value is −1.605 and the reported partition coefficient is on record as 0.025.
For the compound `CCCCCCCOS(=O)(=O)[O-].C[N+]1(CC2CC2)CCC23c4c5ccc(O)c4OC2C(=O)CCC3(O)C1C5` (stereo not shown) [MNTX-heptyl sulfate, methylnaltrexone heptyl sulfate], in series [2], the “Log P” value was 0.292 and the APC turned out to be 1.961.
For the compound `C[N+]1(CC2CC2)CC[C@]23c4c5ccc(O)c4O[C@H]2C(=O)CC[C@@]3(O)[C@H]1C5` (stereo partly drawn) [methylnaltrexone, (R)—N-methylnaltrexone], in series [3], the laxation result is given as “induced “immediate” laxation”. The “methylnaltrexone absorbed into the bloodstream when delivered orally” value in series [4] was “less than 5%”. In series [5], the “average peak plasma levels” value was 162 ng/mL and the “peak plasma levels, range” value is 30 to 774 ng/mL.
For “methylnaltrexone dodecyl sulfate [MNTX-dodecyl sulfate]”, in series [2], the “Log P” value was 1.505 and the APC was 32.014.

(Values after US10507206B2, “Oral formulations and lipophilic salts of methylnaltrexone” (Wyeth, LLC, priority 2010, dated 2019).)
